Measured values as given in US20250367267A1, “TREATING AUTOIMMUNE DISEASES WITH INSULIN-LIKE GROWTH FACTOR 1 RECEPTOR LIGAND CONJUGATED TO AN AGENT” (Lirum Therapeutics, Inc., priority 2022, published 2025).
“Also recorded” adds a separate entry of the source.

Experiments:
[1] = test system: CD19+ B cells and CD3+ T cells in the peripheral blood of SLE patients; details: Jacobi et al 2010; cited from earlier work
[2] = test system: IGF-1R+ subpopulations of PBMCs from patients with SLE, RA and SSc; assay: Effect of LX-101 on IGF-1R+ PBMC subpopulations (percentage of live IGF-1R+ cells by flow cytometry); format: cell-based, human; details: 17 μM LX-101, three days
From the text: Frozen peripheral blood mononuclear cells (PBMCs) were obtained from Discovery Life Sciences from patients diagnosed with lupus, rheumatoid arthritis, and scleroderma. One sample was obtained from a person diagnosed with systemic lupus erythematosus (SLE) undergoing active treatment with methotrexate, Celebrex, prednisone, and Benlysta. A second sample was obtained from a person diagnosed with scleroderma (SSc) before receiving treatment. A third sample was obtained from a person diagnosed with rheumatoid arthritis (RA) undergoing active treatment with Nabumetone. All samples were collected following informed consent. The PBMCs were thawed, washed, and resuspended in AIM V media with 5% human AB serum (hAB) at a concentration of 1×10^6 cells/mL. PBMCs were seeded in a 24 well plate (1×10^6 cells/well) and treated with a 17 μM of LX-101 or hydrochloric acid (HCl) as a vehicle control. LX-101 was supplied at a concentration of 4 mM (where the concentration is expressed in terms of the amount of methotrexate in the drug) in 10 mM HC1. The vehicle control groups received the same concentration of HCl as that in the LX-101 solution received by the treatment group. PBMCs were incubated at 37° C. with 5% CO2 for three days. After the three day incubation with LX-101 or the vehicle control, the PBMCs were blocked with human TruStain FcX Fc receptor blocking solution, and stained with an antibody mixture with markers shown in Table 2. Cells were fixed and flow cytometric data were collected for 50,000 live cell events using a BD LSRFortessa X-20 flow cytometer. Data were analyzed with Kaluza software. The effect of LX-101 was analyzed for both the bulk PBMC and IGF-1R^+ subpopulations. The percentages of live, B cells, CD4^+ T cells, CD8^+ T cells, NK cells, and NKT cells were determined.

[3] = test system: bulk subpopulations of PBMCs from patients with SLE, RA and SSc; assay: Effect of LX-101 on bulk PBMC subpopulations (percentage of live cells by flow cytometry); format: cell-based, human; details: 17 μM LX-101, three days
From the text: Frozen peripheral blood mononuclear cells (PBMCs) were obtained from Discovery Life Sciences from patients diagnosed with lupus, rheumatoid arthritis, and scleroderma. One sample was obtained from a person diagnosed with systemic lupus erythematosus (SLE) undergoing active treatment with methotrexate, Celebrex, prednisone, and Benlysta. A second sample was obtained from a person diagnosed with scleroderma (SSc) before receiving treatment. A third sample was obtained from a person diagnosed with rheumatoid arthritis (RA) undergoing active treatment with Nabumetone. All samples were collected following informed consent.
The PBMCs were thawed, washed, and resuspended in AIM V media with 5% human AB serum (hAB) at a concentration of 1×10^6 cells/mL. PBMCs were seeded in a 24 well plate (1×10^6 cells/well) and treated with a 17 μM of LX-101 or hydrochloric acid (HCl) as a vehicle control. […]
After the three day incubation with LX-101 or the vehicle control, the PBMCs were blocked with human TruStain FcX Fc receptor blocking solution, and stained with an antibody mixture with markers shown in Table 2. […] Data were analyzed with Kaluza software.
The effect of LX-101 was analyzed for both the bulk PBMC and IGF-1R^+ subpopulations. The percentages of live, B cells, CD4^+ T cells, CD8^+ T cells, NK cells, and NKT cells were determined.

IGFBPs = details: known in the art (U.S. Pat. No. 4,876,242; Francis et al. 1992); cited from earlier work
IGF-1R = IGF-1R (Homo sapiens, UniProt P08069); details: Hakuno et al. 2018; cited from earlier work
Chain of IGF-1R (P08069 31-736 limits assumed, species assumed): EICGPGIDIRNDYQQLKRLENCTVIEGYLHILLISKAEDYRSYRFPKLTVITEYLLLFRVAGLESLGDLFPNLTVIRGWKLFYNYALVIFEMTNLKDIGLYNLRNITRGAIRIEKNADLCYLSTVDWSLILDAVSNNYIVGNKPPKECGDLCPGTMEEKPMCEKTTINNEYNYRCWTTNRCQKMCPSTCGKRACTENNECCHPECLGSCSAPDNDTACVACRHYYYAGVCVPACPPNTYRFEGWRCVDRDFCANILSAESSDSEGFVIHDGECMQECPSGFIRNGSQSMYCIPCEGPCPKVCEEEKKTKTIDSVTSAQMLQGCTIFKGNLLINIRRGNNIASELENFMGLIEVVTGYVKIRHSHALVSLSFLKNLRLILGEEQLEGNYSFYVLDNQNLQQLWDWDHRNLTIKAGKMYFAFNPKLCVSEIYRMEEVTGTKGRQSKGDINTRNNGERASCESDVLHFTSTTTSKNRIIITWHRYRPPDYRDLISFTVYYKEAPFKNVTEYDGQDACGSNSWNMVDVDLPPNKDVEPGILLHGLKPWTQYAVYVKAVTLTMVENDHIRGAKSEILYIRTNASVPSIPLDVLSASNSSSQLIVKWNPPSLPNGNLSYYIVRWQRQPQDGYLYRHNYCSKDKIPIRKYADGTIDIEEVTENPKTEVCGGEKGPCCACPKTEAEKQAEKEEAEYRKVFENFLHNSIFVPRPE
Chain of IGF-1R (P08069 741-1367 partner limits assumed, species assumed): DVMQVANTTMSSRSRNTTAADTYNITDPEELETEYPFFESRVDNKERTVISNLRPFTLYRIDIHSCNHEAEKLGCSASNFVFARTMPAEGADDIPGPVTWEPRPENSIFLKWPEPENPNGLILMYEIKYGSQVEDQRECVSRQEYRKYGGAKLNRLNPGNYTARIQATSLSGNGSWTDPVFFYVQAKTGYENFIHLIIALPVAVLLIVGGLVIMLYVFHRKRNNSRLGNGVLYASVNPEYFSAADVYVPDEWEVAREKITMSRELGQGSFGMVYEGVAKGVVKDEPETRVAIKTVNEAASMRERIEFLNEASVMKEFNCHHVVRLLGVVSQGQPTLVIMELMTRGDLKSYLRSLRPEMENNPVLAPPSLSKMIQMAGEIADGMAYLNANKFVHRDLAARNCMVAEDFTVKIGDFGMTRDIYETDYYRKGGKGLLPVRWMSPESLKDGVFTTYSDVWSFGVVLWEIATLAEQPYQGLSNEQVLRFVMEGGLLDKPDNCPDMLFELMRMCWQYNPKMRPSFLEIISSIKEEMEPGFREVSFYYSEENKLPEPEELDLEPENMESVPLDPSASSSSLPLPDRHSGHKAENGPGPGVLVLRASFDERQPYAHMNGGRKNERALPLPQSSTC

[4] = PBMCs from SLE, RA and SSc patients

Benlysta: a B lymphocyte stimulator (BLyS)-specific inhibitor
number of CD3+ T cells [1]: not affected
total CD19+ B cells in the peripheral blood [1]: decrease

LX-101
percentage of IGF-1R+CD19+ B cells vs vehicle control [2, 4]: reduced percentages; also recorded: reduction
percentage of live IGF-1R+ cells (all subpopulations) vs vehicle control [2, 4]: marked reductions; also recorded: Reduced percentages
IGF-1R+CD3+CD8+ T cells vs vehicle control ([2]; SLE, RA and SSc samples): reduction; also recorded: reduced percentages
IGF-1R+CD56+CD3+ natural killer T (NKT) cells vs vehicle control ([2]; SLE, RA and SSc samples): modest reduction; also recorded: reduced percentages
IGF-1R+CD3+CD4+ T cells vs vehicle control ([2]; SLE, RA and SSc samples, especially RA sample): substantial reduction; also recorded: reduced percentages
IGF-1R+CD56+CD3− natural killer (NK) cells vs vehicle control ([2]; particularly samples from SLE and RA patients): reduction; also recorded: reduced percentages
off-target effects in IGF-1R− cells [3]: Little off-target effects
percentage of live B cells, CD4+ T cells, CD8+ T cells, NK cells and NKT cells in the bulk PBMC population, vs vehicle control [3]: Little difference

R3-IGF-1: glutamic acid in position 3 of native human IGF-1 is substituted by arginine
binding affinity for IGFBPs compared to wildtype IGF-1 (IGFBPs): reduced binding affinity

des (1-3) IGF-1: lacks the first three amino acids of human IGF-1
binding affinity for IGFBPs compared to wildtype IGF-1 (IGFBPs): reduced binding affinity

insulin: native ligand to the IGF-1R; two chains connected by disulfide bonds
affinity for IGF-1R, fold lower than the IGFs (IGF-1R): 50- to 100 fold

B1: IGF132: first 17 amino acids of the B chain of insulin replace the first 16 amino acids of human IGF-1 (protein)
chain: FVNQHLCGSHLVEALYLVCGDRGFYFNKPTGYGSSSRRAPQTGIVDECCFRSCDLRRLEMYCAPLKPAKSA
binding affinity for IGFBPs compared to wildtype IGF-1 (IGFBPs): reduced binding affinity
